In patent US20190032014A1, “USING MICROBIOTA METABOLITES TO DIFFERENTIATE NAÏVE T-CELLS AND RELATED METHODS TO INDUCE OR PREVENT INFLAMMATORY CONDITIONS” (THE TEXAS A&M UNIVERSITY SYSTEM, priority 2016, published 2019):
Entries after “also recorded” stand apart in the source; their conditions may differ.

Experiments:
FoxP3+ cells = test: Homing markers (α4β7, CD62L) on iTreg cells
CD4+ CD25− naïve T cells = test: In vitro naïve T cell differentiation, Th2-skew (IL-4+); format: cell-based, C57BL/6 mice; conditions: Th2 skewing conditions; vs solvent control
Description: When naïve CD4+ CD25− cells were cultured 72 hours in αCD3/28 coated wells with Th0-, Th1- or Th2-skew cytokines and indole or solvent control, followed by stimulation with PMA, Ionomycin and Golgi Plug for the last 5 hours of culture, no effect on the % of Th1 and Th2 cells was observed (in contrast to the significant effect that indole has on Treg and Th17 cells; see FIGS. 2A and 2B).
CD4+ CD25− T cells were isolated to high purity (>98%) from the pooled spleen and mesenteric lymph nodes of C57BL/6 mice (Jackson Labs) with a BD FACS Aria II flow cytometer. Fc Block (BD), αCD4-efluor450 (eBioscience clone GK1.5) and αCD25-PECy7 (eBioscience clone PC61.5) antibodies were used for staining before sorting.
For Th1-skew: 5 ng/mL IL-12 (Peprotech cat. #210-12) and 10 µg/mL αIL-4 (BioXCell clone 11B11) were added to culture. For Th2-skew: 10 ng/mL IL-4 (Peprotech) and 10 μg/mL αIFN-γ (BioXCell clone R4-6A2) were added to culture. For Th17-skew: 10 ng/mL IL-6 (Peprotech), 5 ng/mL IL-23 (R&D), 0.5 ng/mL TGF-β (Peprotech), 10 μg/mL al-4 (BioXCell clone 11B11), and 10 μg/mL αIFN-γ (BioXCell clone R4-6A2) were added to culture. For Treg-skew: 2 ng/mL TGF-β (Peprotech) and 100 U/mL IL-2 (Roche) were added to culture. Sodium Propionate, sodium acetate, sodium butyrate and sodium chloride (all from Sigma-Aldrich) were solubilized in media and added to culture. […]

IL-6 receptor / pSTAT3 = test: IL-6 receptor levels and STAT3 activity; format: cell-based; conditions: vs control
Description: Indole and 5-HI were assessed for impact on TGF-β receptor expression and SMAD2/3 activity. […] Indole and 5-HI were also assessed for impact on IL-6 receptor levels and subsequent STAT3 activity.

iTregs = test: iTreg cytokine expression (TGF-β, IL-10); format: cell-based, mice
Description: FOXP3-EGFP naïve CD4+ CD25− cells cultured in αCD3/28 coated wells with Treg-skew cytokines and indole or solvent control were cultured for 72 hours, and assessed for FoxP3 expression and proliferation by CFSE dilution.
The iTregs were next assessed for cytokine production when conditioned with indole or butyrate.
For flow cytometry, cells are treated with Golgi plug (Brefeldin A) for four hours and then stained with fluorophore-conjugated mAbs against both inflammatory (e.g., IL-6, IL-12, IL-17, TNF-α) and anti-inflammatory (e.g., IL-10, IL-35, TGF-β) cytokines. Samples are stained with the maximum number of antibodies. Furthermore, expression of established Treg markers (FOXP3, CD25hi, CD103, CD62L, GITR, PD-1, CD152, CD127, ICOS, Granzyme-B) [Vignali, D. A., L. W. Collison, and C. J. Workman, Nat Rev Immunol 8(7):523-32. (2008); Chen, J., et al., Int Immunopharmacol 11(5):610-7 (2011)] and markers of an inflammatory phenotype (RORγT) can be analyzed. […] For all conditions, Tregs generated without the TDMM can be used as the control. The effect of the TDMMs on suppression of effector T cell proliferation is determined as described for FIG. 4. Such assays permit determination of whether the iTregs generated with different TDMMs are functional as natural Tregs.

[1] = test system: wild-type or AhR KO T cells; test: T cell differentiation in wild-type vs AhR KO T cells; format: cell-based, mice
Description: The aryl hydrocarbon receptor (AhR) is implicated in the differentiation of Treg and Th17 cells. The role of AhR was assessed with respect to indole's effect on Treg augmentation. Wild-type and AhR KO naïve T-cells were conditioned with increasing amounts of indole and then assessed for % of FoxP3 expression. […] Additionally, the role of AhR was assessed with respect to indole's effect on Th17 inhibition.
The AhR knockout was further investigated for iTreg homing markers, CD62L and α4β7, as described above.
Next, the AhR knockout was further investigated for the impact of AhR on 5-HI-mediated T cell differentiation.

DSS colitis = DSS colitis model; conditions: 5% DSS 7 days, then indole 7 days; wild-type vs Rag-deficient mice
Description: FIG. 32A: Wild-type C57B16 mice were treated with 5% DSS, or not, in drinking water for 7 days. […] Individual mouse weight was recorded daily throughout experiment as a measure of inflammation. FIG. 32B: Mice were treated as in FIG. 32A, only mice were Rag-deficient mice, which lack lymphocytes (T- and B-cells).
For FIG. 32A, wild-type C57B16 mice were treated with 5% DSS, or not, in drinking water for 7 days. […] Individual mouse weight was recorded daily throughout experiment as a measure of inflammation. For FIG. 32B, Rag-deficient mice, which lack lymphocytes (T- and B-cells), were treated as in FIG. 32A and individual weight was recorded.

c1ccc2[nH]ccc2c1 [Indole, indole]
% of α4β7+ in FoxP3+ cells (FoxP3+ cells; indole alone): increases the % of α4β7+ in FoxP3+ cells
% of α4β7+ in FoxP3+ cells (FoxP3+ cells; indole combined with retinoic acid (RA)): amplified when combined with retinoic acid (RA)
% α4β7+ on iTreg cells (FoxP3+ cells; indole with acetate, propionate or butyrate at multiple concentrations): increases α4β7 in the presence of SCFAs, except for high levels of butyrate
CD62L+ on FoxP3+ cells (FoxP3+ cells; with and without retinoic acid (RA)): increase of CD62L+ on FoxP3+ cells with and without combination with retinoic acid (RA)
effect on % Th2 cells (IL-4+) (CD4+ CD25− naïve T cells): no effect; also recorded: did not influence the development of Th1 and Th2 cells
% IL-6 receptor+ cells (IL-6 receptor / pSTAT3): decrease
% pSTAT3+ cells / IL-6 induced stat3 (IL-6 receptor / pSTAT3): decrease
TGF-β secretion (iTregs; indole-conditioned Tregs vs control iTregs (DMF), overnight re-stimulation with αCD3): secrete more TGF-β than conventional control iTregs (DMF)
IL-10 expression (iTregs; indole-conditioned iTregs): inhibition of IL-10 expression
TGF-β expression (iTregs; indole-conditioned vs butyrate-conditioned iTregs): increased TGF-β expression over butyrate-conditioned iTregs
% IL-17+ in wild-type vs AhR KO T cells [1]: decreased significantly more in wild-type over AhR KO T cells
AhR dependence of effects (AhR knockout mice, unpublished data) [1]: some of the effects of indole are not AhR dependent
FoxP3+ % in wild-type vs AhR KO T cells ([1]; increasing amounts of test substance): increased significantly more in wild-type over AhR KO T cells
expression of CD62L and α4β7 in FoxP3+ wild-type or AhR KO T cells ([1]; with or without RA): roughly equivalent with only minor differences
colitis (mouse weight as measure of inflammation) (DSS colitis): inhibits colitis in a T-cell-dependent manner
